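96-well plates; 48 h exposure; 5 concentrations. Endpoints by linear interpolation between flanking doses. Not reached: highest tested concentration assigned. Abbreviation: GI50, concentration required for 50% inhibition of growth. The concentration for full growth arrest is given as TGI.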
What was measured:
Assay in all cases: DTP human tumour cell line panel, 48 h
786-0 renal = system: 786-0 renal
A498 renal = system: A498 renal
A549 NSCLC = system: A549 NSCLC
ACHN renal = system: ACHN renal
BT-549 breast = system: BT-549 breast
CAKI-1 renal = system: CAKI-1 renal
CCRF-CEM leukemia = system: CCRF-CEM leukemia
COLO 205 colon = system: COLO 205 colon
DU-145 prostate = system: DU-145 prostate
EKVX NSCLC = system: EKVX NSCLC
HCC-2998 colon = system: HCC-2998 colon
HCT-116 colon = system: HCT-116 colon
HCT-15 colon = system: HCT-15 colon
HL-60(TB) leukemia = system: HL-60(TB) leukemia
HOP-62 NSCLC = system: HOP-62 NSCLC
HOP-92 NSCLC = system: HOP-92 NSCLC
HS 578T breast = system: HS 578T breast
HT29 colon = system: HT29 colon
IGROV1 ovarian = system: IGROV1 ovarian
K-562 leukemia = system: K-562 leukemia
KM12 colon = system: KM12 colon
LOX IMVI melanoma = system: LOX IMVI melanoma
M14 melanoma = system: M14 melanoma
MALME-3M melanoma = system: MALME-3M melanoma
MCF7 breast = system: MCF7 breast
MDA-MB-231 breast = system: MDA-MB-231 breast
MDA-MB-435 = system: MDA-MB-435
MOLT-4 leukemia = system: MOLT-4 leukemia
NCI-H226 lung = system: NCI-H226 lung
NCI-H23 lung = system: NCI-H23 lung
NCI-H460 lung = system: NCI-H460 lung
NCI-H522 lung = system: NCI-H522 lung
NCI/ADR-RES ovarian = system: NCI/ADR-RES ovarian
OVCAR-3 ovarian = system: OVCAR-3 ovarian
OVCAR-4 ovarian = system: OVCAR-4 ovarian
OVCAR-5 ovarian = system: OVCAR-5 ovarian
OVCAR-8 ovarian = system: OVCAR-8 ovarian
PC-3 prostate = system: PC-3 prostate
RPMI-8226 leukemia = system: RPMI-8226 leukemia
RXF 393 renal = system: RXF 393 renal
SF-268 CNS = system: SF-268 CNS
SF-295 CNS = system: SF-295 CNS
SF-539 CNS = system: SF-539 CNS
SK-MEL-2 melanoma = system: SK-MEL-2 melanoma
SK-MEL-28 melanoma = system: SK-MEL-28 melanoma
SK-MEL-5 melanoma = system: SK-MEL-5 melanoma
SK-OV-3 ovarian = system: SK-OV-3 ovarian
SN12C renal = system: SN12C renal
SNB-19 CNS = system: SNB-19 CNS
SNB-75 CNS = system: SNB-75 CNS
SR leukemia = system: SR leukemia
SW-620 colon = system: SW-620 colon
T-47D breast = system: T-47D breast
TK-10 renal = system: TK-10 renal
U251 CNS = system: U251 CNS
UACC-257 melanoma = system: UACC-257 melanoma
UACC-62 melanoma = system: UACC-62 melanoma
UO-31 renal = system: UO-31 renal

In the case of `CC(C)(C)Nc1nc2c(OCCc3ccccc3)cccn2c1-c1ccccc1Cl`, the GI50 (786-0 renal) is reported as 4.84 µM, the TGI (786-0 renal) is reported as 18.1 µM and the GI50 (A498 renal) is reported as 11.8 µM. The TGI (A498 renal) was 24.3 µM, the GI50 (A549 NSCLC) was 4.88 µM and the TGI (A549 NSCLC) was 27.1 µM. The GI50 (ACHN renal) was 8.82 µM, the TGI (ACHN renal) was 21 µM and the GI50 (BT-549 breast) was 2.61 µM. The TGI (BT-549 breast) was 10.2 µM, the GI50 (CAKI-1 renal) was 5.89 µM and the TGI (CAKI-1 renal) was 20.2 µM. For the same compound, the GI50 (CCRF-CEM leukemia) was 3.56 µM, the TGI (CCRF-CEM leukemia) was 16 µM and the GI50 (COLO 205 colon) was 3.49 µM. For the same compound, the TGI (COLO 205 colon) was 10.6 µM, the GI50 (DU-145 prostate) was 7.9 µM and the TGI (DU-145 prostate) was 24.6 µM. For the same compound, the GI50 (EKVX NSCLC) was 3.19 µM, the TGI (EKVX NSCLC) was 12.8 µM and the GI50 (HCC-2998 colon) was 3.51 µM. It also gave a TGI (HCC-2998 colon) of 12.5 µM, a GI50 (HCT-116 colon) of 4.01 µM and a TGI (HCT-116 colon) of 15.3 µM. The GI50 (HCT-15 colon) was 4.12 µM, the TGI (HCT-15 colon) was 15.9 µM and the GI50 (HL-60(TB) leukemia) was 2.42 µM. For the same compound, the TGI (HL-60(TB) leukemia) was 5.68 µM, the GI50 (HOP-62 NSCLC) was 4.82 µM and the TGI (HOP-62 NSCLC) was 18.9 µM. The GI50 (HOP-92 NSCLC) was 2.36 µM, the TGI (HOP-92 NSCLC) was 7.93 µM and the GI50 (HS 578T breast) was 4.05 µM. For the same compound, the TGI (HS 578T breast) was 21.4 µM, the GI50 (HT29 colon) was 4.62 µM and the TGI (HT29 colon) was 30.1 µM. For the same compound, the GI50 (IGROV1 ovarian) was 5.05 µM, the TGI (IGROV1 ovarian) was 17.8 µM and the GI50 (K-562 leukemia) was 3.25 µM. For the same compound, the TGI (K-562 leukemia) was 18.1 µM, the GI50 (KM12 colon) was 3.58 µM and the TGI (KM12 colon) was 12.4 µM. The GI50 (LOX IMVI melanoma) was 4.08 µM, the TGI (LOX IMVI melanoma) was 15.8 µM and the GI50 (M14 melanoma) was 3.9 µM. It also gave a TGI (M14 melanoma) of 15.3 µM, a GI50 (MALME-3M melanoma) of 2.23 µM and a TGI (MALME-3M melanoma) of 5.52 µM. The GI50 (MCF7 breast) was 3.35 µM, the TGI (MCF7 breast) was 14.7 µM and the GI50 (MDA-MB-231 breast) was 5.95 µM. For the same compound, the TGI (MDA-MB-231 breast) was 19 µM, the GI50 (MDA-MB-435) was 3.29 µM and the TGI (MDA-MB-435) was 11.2 µM. The GI50 (MOLT-4 leukemia) was 3.63 µM, the TGI (MOLT-4 leukemia) was 17 µM and the GI50 (NCI-H226 lung) was 3.52 µM. It also gave a TGI (NCI-H226 lung) of 16.6 µM, a GI50 (NCI-H23 lung) of 3.67 µM and a TGI (NCI-H23 lung) of 13.8 µM. The GI50 (NCI-H460 lung) was 3.76 µM, the TGI (NCI-H460 lung) was 13.4 µM and the GI50 (NCI-H522 lung) was 3.75 µM. It also gave a TGI (NCI-H522 lung) of 15.3 µM, a GI50 (NCI/ADR-RES ovarian) of 6.4 µM and a TGI (NCI/ADR-RES ovarian) of 20.5 µM. For the same compound, the GI50 (OVCAR-3 ovarian) was 2.93 µM, the TGI (OVCAR-3 ovarian) was 9.75 µM and the GI50 (OVCAR-4 ovarian) was 3.61 µM. The TGI (OVCAR-4 ovarian) was 14.9 µM, the GI50 (OVCAR-5 ovarian) was 11.9 µM and the TGI (OVCAR-5 ovarian) was 24.7 µM. It also gave a GI50 (OVCAR-8 ovarian) of 4.36 µM, a TGI (OVCAR-8 ovarian) of 20 µM and a GI50 (PC-3 prostate) of 3.37 µM. The TGI (PC-3 prostate) was 15.5 µM, the GI50 (RPMI-8226 leukemia) was 2.78 µM and the TGI (RPMI-8226 leukemia) was 7.5 µM. It also gave a GI50 (RXF 393 renal) of 9.26 µM, a TGI (RXF 393 renal) of 22.3 µM and a GI50 (SF-268 CNS) of 4.52 µM. For the same compound, the TGI (SF-268 CNS) was 18.8 µM, the GI50 (SF-295 CNS) was 3.19 µM and the TGI (SF-295 CNS) was 12.6 µM. The GI50 (SF-539 CNS) was 10.7 µM, the TGI (SF-539 CNS) was 22.5 µM and the GI50 (SK-MEL-2 melanoma) was 2.72 µM. It also gave a TGI (SK-MEL-2 melanoma) of 8.33 µM, a GI50 (SK-MEL-28 melanoma) of 3.45 µM and a TGI (SK-MEL-28 melanoma) of 13.1 µM. The GI50 (SK-MEL-5 melanoma) was 2.01 µM, the TGI (SK-MEL-5 melanoma) was 4.43 µM and the GI50 (SK-OV-3 ovarian) was 3.82 µM. It also gave a TGI (SK-OV-3 ovarian) of 16.9 µM, a GI50 (SN12C renal) of 3.03 µM and a TGI (SN12C renal) of 12.7 µM. For the same compound, the GI50 (SNB-19 CNS) was 3.35 µM, the TGI (SNB-19 CNS) was 13.1 µM and the GI50 (SNB-75 CNS) was 1.58 µM. The TGI (SNB-75 CNS) was 13.9 µM, the GI50 (SR leukemia) was 3.89 µM and the TGI (SR leukemia) was 43.4 µM. The GI50 (SW-620 colon) was 4.91 µM, the TGI (SW-620 colon) was 17.7 µM and the GI50 (T-47D breast) was 2.35 µM. The TGI (T-47D breast) was 17.1 µM, the GI50 (TK-10 renal) was 6.49 µM and the TGI (TK-10 renal) was 20.4 µM. The GI50 (U251 CNS) was 3.14 µM, the TGI (U251 CNS) was 12.5 µM and the GI50 (UACC-257 melanoma) was 3.52 µM. The TGI (UACC-257 melanoma) was 13 µM, the GI50 (UACC-62 melanoma) was 2.22 µM and the TGI (UACC-62 melanoma) was 6.55 µM. The GI50 (UO-31 renal) was 3.2 µM and the TGI (UO-31 renal) was 16.8 µM.
